Active and inactive are the calls of the source. The rule behind the calls is not given here.
Columns and labels:
HeLa [1] = assay: Growth inhibition of human HeLa cells measured after 72 hrs by phosphatase assay; assay type: functional, cell-based
Sus scrofa [2] = organism: Sus scrofa; assay: Inhibition of GMPCPP-induced porcine brain microtubule polymerization at 2 uM measured upto 30 mins by UV spectrophotometric method
HeLa [3] = assay: Induction of mitotic arrest in human HeLa cells after 24 hrs by immunofluorescence based confocal microscopy relative to vinblastine; assay type: functional
L1210 = assay: Growth inhibition of mouse L1210 cells measured after 72 hrs by phosphatase assay; assay type: functional, cell-based; details: L1210, 72 h
[4] = target: T1, Tubulin alpha (Homo sapiens) (UniProt P0DPH7+P68366+Q71U36+P68363+Q9BQE3+Q6PEY2+A6NHL2+Q9NY65); assay: Induction of microtubule disposition in human HeLa cells assessed as detection of alpha tubulin isoform at 500 nM for 20 hrs measured by immunofluorescence method; assay type: cell-based
Tubulin (Sus scrofa) = Tubulin (Sus scrofa) (UniProt P02554+P02550); assay: Competitive displacement of BODIPY-VBL from porcine brain tubulin at 1.8 uM in presence of GTP by fluorescence method relative to control
Tubulin (Homo sapiens) [5] = target: T2, Tubulin (Homo sapiens) (UniProt P68371+Q9H4B7+P0DPH7+P68366+Q13509+Q71U36+P04350+Q3ZCM7+P07437+P68363+Q9BQE3+Q6PEY2+Q13885+Q9BVA1+Q9BUF5); assay: Induction of microtubule disposition in human HeLa cells assessed as appearance of multiple clumps of tubulin at 500 pM for 20 hrs measured by immunofluorescence method; assay type: cell-based
HeLa [6] = assay: Potency index, ratio of vinblastine effect to compound effect for Induction of mitotic arrest in human HeLa cells after 24 hrs by immunofluorescence based confocal microscopy relative to control; assay type: functional
Sus scrofa [7] = organism: Sus scrofa; assay: Inhibition of paclitaxel-induced porcine brain microtubule polymerization at 2 uM under 4 degreeC measured upto 30 mins by UV spectrophotometric method
Tubulin (Homo sapiens) [8] = target: T2, Tubulin (Homo sapiens); assay: Inhibition of GFP tagged human tubulin expressed in human HeLa cells assessed as increase in the ratio of short versus medium and long microtubules after 5 hrs by TIRF super resolution microscopy; assay type: cell-based
HCT-116 = assay: Growth inhibition of human HCT116 cells measured after 72 hrs by phosphatase assay; assay type: functional, cell-based; details: HCT-116, 72 h
[9] = target: Tubulin beta (Homo sapiens) (UniProt P68371+Q9H4B7+Q13509+P04350+Q3ZCM7+P07437+Q13885+Q9BVA1+Q9BUF5+A6NNZ2); assay: Induction of microtubule disposition in human HeLa cells assessed as detection of beta tubulin isoform at 500 nM for 20 hrs measured by immunofluorescence method; assay type: cell-based
Tubulin (Homo sapiens) [10] = target: T2, Tubulin (Homo sapiens); assay: Inhibition of global microtubule skeleton in human HeLa cells assessed as catastrophic effect on global microtubule skeleton at 75 pM incubated for 20 hrs by Hoechst/[…] staining based confocal microscopy; assay type: cell-based
Bos taurus [11] = organism: Bos taurus; assay: Inhibition of bovine microtubule polymerization at 143 pM and measured upto 5000 sec by tubulin polymerisation assay
Bos taurus [12] = organism: Bos taurus; assay: Inhibition of bovine microtubule polymerization at 143 nM and measured upto 5000 sec by tubulin polymerisation assay
Sus scrofa [13] = organism: Sus scrofa; assay: Effect on GMPCPP-induced porcine brain microtubule polymerization assessed as catalytic depolymerisation of microtubulin at 2 uM measured upto 30 mins by UV spectrophotometric method
Tubulin (Homo sapiens) [14] = target: T2, Tubulin (Homo sapiens); assay: Inhibition of human GFP tagged tubulin expressed in human HeLa cells assessed as suppression of microtubule dynamics at 500 nM after 5 hrs by TIRF super resolution microscopy; assay type: cell-based
Bos taurus [15] = organism: Bos taurus; assay: Inhibition of bovine microtubule polymerization at 143 uM and measured upto 5000 sec by tubulin polymerisation assay
HeLa [16] = assay: Induction of microtubule disposition in human HeLa cells assessed as detection of gamma tubulin isoform at 500 nM for 20 hrs measured by immunofluorescence method; assay type: cell-based
Sus scrofa [17] = organism: Sus scrofa; assay: Inhibition of paclitaxel-induced porcine brain microtubule polymerization at 2 uM measured upto 30 mins by UV spectrophotometric method
HeLa [18] = assay: Induction of mitotic arrest in human HeLa cells after 24 hrs by immunofluorescence based confocal microscopy relative to control; assay type: functional, cell-based
Sus scrofa [19] = organism: Sus scrofa; assay: Inhibition of GMPCPP-induced porcine brain microtubule polymerization at 2 uM under 4 degreeC measured upto 30 mins by UV spectrophotometric method
HCT-116/VM46 = assay: Growth inhibition of human HCT116/VM46 cells measured after 72 hrs by phosphatase assay; assay type: functional, cell-based; details: HCT-116/VM46, 72 h
Tubulin (Homo sapiens) [20] = target: T2, Tubulin (Homo sapiens); assay: Induction of microtubule disposition in human HeLa cells assessed as appearance of clumps of tubulin without […] at 500 pM incubated for 20 hrs measured by immunofluorescence method; assay type: cell-based
[21] = target: T1, Tubulin alpha (Homo sapiens); assay: Induction of microtubule disposition in human HeLa cells assessed as detection of alpha tubulin isoform at 10 nM for 20 hrs measured by immunofluorescence method; assay type: cell-based
HeLa [22] = assay: Induction of microtubule disposition in human HeLa cells assessed as detection of gamma tubulin isoform at 10 nM for 20 hrs measured by immunofluorescence method; assay type: cell-based

SMILES: CC[C@]1(NC(=O)N2Cc3ccc(NC(=O)c4cnccn4)cc3C2)C[C@H]2CN(CCc3c([nH]c4ccccc34)[C@@](C(=O)OC)(c3cc4c(cc3OC)N(C)[C@H]3[C@@](O)(C(=O)OC)[C@H](OC(C)=O)[C@]5(CC)C=CCN6CC[C@]43[C@@H]65)C2)C1
- IC50 (HeLa [1]): 0.083 nM
- inhibition (Sus scrofa [2]): inactive
- fold change (FC) (HeLa [3]): 100
- IC50 (L1210): 0.059 nM
- Activity [4]: Active
- Activity (Tubulin (Sus scrofa)): 105%
- Activity (Tubulin (Homo sapiens) [5]): Active
- Ratio (HeLa [6]): 100
- inhibition (Sus scrofa [7]): Active
- inhibition (Tubulin (Homo sapiens) [8]): Active
- IC50 (HCT-116): 0.075 nM
- Activity [9]: Active
- inhibition (Tubulin (Homo sapiens) [10]): inactive
- inhibition (Bos taurus [11]): inactive
- inhibition (Bos taurus [12]): inactive
- Activity (Sus scrofa [13]): inactive
- inhibition (Tubulin (Homo sapiens) [14]): Active
- inhibition (Bos taurus [15]): Active
- Activity (HeLa [16]): inactive
- inhibition (Sus scrofa [17]): inactive
- Activity (HeLa [18]): Dose-dependent effect
- inhibition (Sus scrofa [19]): Active
- IC50 (HCT-116/VM46): 0.83 nM
- Activity (Tubulin (Homo sapiens) [20]): Active

SMILES: CC[C@]1(NC(=O)N2Cc3ccccc3C2)C[C@H]2CN(CCc3c([nH]c4ccccc34)[C@@](C(=O)OC)(c3cc4c(cc3OC)N(C)[C@H]3[C@@](O)(C(=O)OC)[C@H](OC(C)=O)[C@]5(CC)C=CCN6CC[C@]43[C@@H]65)C2)C1
- Activity (Tubulin (Sus scrofa)): 49%

SMILES: CC[C@]1(NC(=O)N2Cc3ccc(NC(=O)c4cccnn4)cc3C2)C[C@H]2CN(CCc3c([nH]c4ccccc34)[C@@](C(=O)OC)(c3cc4c(cc3OC)N(C)[C@H]3[C@@](O)(C(=O)OC)[C@H](OC(C)=O)[C@]5(CC)C=CCN6CC[C@]43[C@@H]65)C2)C1
- IC50 (L1210): 0.059 nM
- Activity (Tubulin (Sus scrofa)): 101%
- IC50 (HCT-116): 0.067 nM
- inhibition (Bos taurus [11]): inactive
- inhibition (Bos taurus [12]): inactive
- IC50 (HCT-116/VM46): 0.87 nM

SMILES: CC[C@]1(O)C[C@@H]2CN(CCc3c([nH]c4ccccc34)[C@@](C(=O)OC)(c3cc4c(cc3OC)N(C)[C@H]3[C@@](O)(C(=O)OC)[C@H](OC(C)=O)[C@]5(CC)C=CCN6CC[C@]43[C@@H]65)C2)C1 [VINBLASTINE]
- IC50 (HeLa [1]): 7.8 nM
- Activity [21]: Active
- Activity (Tubulin (Sus scrofa)): 31%
- Activity (HeLa [22]): inactive
- inhibition (Bos taurus [15]): Active
- Activity (HeLa [18]): Dose-dependent effect

SMILES: CC[C@]1(NC(=O)N2Cc3ccc(NC(=O)c4ccncn4)cc3C2)C[C@H]2CN(CCc3c([nH]c4ccccc34)[C@@](C(=O)OC)(c3cc4c(cc3OC)N(C)[C@H]3[C@@](O)(C(=O)OC)[C@H](OC(C)=O)[C@]5(CC)C=CCN6CC[C@]43[C@@H]65)C2)C1
- inhibition (Sus scrofa [2]): inactive
- IC50 (L1210): 0.062 nM
- Activity (Tubulin (Sus scrofa)): 104%
- inhibition (Sus scrofa [7]): Active
- IC50 (HCT-116): 0.074 nM
- inhibition (Bos taurus [11]): inactive
- inhibition (Bos taurus [12]): inactive
- Activity (Sus scrofa [13]): inactive
- inhibition (Sus scrofa [17]): inactive
- inhibition (Sus scrofa [19]): Active
- IC50 (HCT-116/VM46): 0.88 nM

— ChEMBL document CHEMBL4390689 (Bioorg Med Chem Lett, 2019)
